For 2 molecules, EC50 and IC50 results are on record in US20130143902A1, “COMPOSITIONS AND METHODS OF TREATING A PROLIFERATIVE DISEASE WITH A QUINAZOLINONE DERIVATIVE” (GILEAD CALISTOGA LLC, priority 2011, published 2013).

pEC50, pIC50: −log10 of the molar value. Bounds are passed on as bounds.

The target in assay [1] is T1, PI3K p110β (Mus musculus, UniProt Q8BTI9).
T1 construct: endogenous in cells; host or cells: murine embryo fibroblasts (MEFs)
Briefly: Cellular p110β signaling: LPA-stimulated MEFs, pAkt Western blot. In kind it is cell-based, murine. The note with it: cellular assay, read-out: EC50 p110β.
Description: (§2) To analyze PI3K p110α and p110β signaling, murine embryo fibroblast (MEFs) were removed from FBS and starved for 2 hours followed by stimulation with 10 ng/mL of PDGF (Cell Signaling Technologies, Danvers, Mass.) or 10 μM of LPA (Echelon, Salt Lake City, Utah) for 10 minutes at 37° C., respectively. After washing once in cold phosphate-buffered saline (PBS), the cell pellet was resuspended in 1× cell lysis buffer (Cell Signaling Technologies) supplemented with mini protease inhibitor mix (Roche, Indianapolis, Ind.), phosphate inhibitor cocktail set I and II (Calbiochem, San Diego, Calif.) for 15 minutes on ice. Whole-cell lysates were obtained by centrifugation at 16,000 g for 10 minutes at 4° C., and the soluble protein was analyzed by Western blotting for Akt and pAkt levels. To analyze PI3K p110δ and p110γ signaling, basophil activation was measured in isolated PBMC or whole blood using the Flow2 CAST kit according to the manufacture's standardized methods (Buhlman Laboratories AG, Switzerland). Briefly, p110δ was activated with anti-FCεRI and p110γ was activated with fMLP (2 μM) in the absence or presence of compounds. To monitor the basophil cell population and cellular activation, anti-CD63-FITC and anti-CCR3-PE antibodies were added to each sample. Cells were fixed and analyzed on a FC500 MPL flow cytometer (Beckman Coulter, Brea, Calif.).

A further assay relates to B Cell Malignancies. Briefly: Cellular viability, B cell malignancies. In kind it is cell-based. The note with it: N = 7. The text has this: (§1) Cellular viability and pAkt activity were used to determine effects of Compounds A, C, and D in solid tumor, B-cell malignancies, and T-cell malignancies.
In the next assay the test system is Solid tumor. Description: Cellular viability, solid tumor. In kind it is cell-based. The settings on record: N = 14. As to the method:
For primary T-ALL samples, cell viability was determined using the BD Cell Viability kit (BD Biosciences) and fluorescent counting beads as previously described in Armstrong, F. et al., NOTCH is a key regulator of human T-cell acute leukemia initiating cell activity, Blood 113, 1730-1740 (2009). Cells were plated with MS5-DL1 stroma cells. After 72 hours following treatment, cells were harvested and stained with an APC-conjugated anti-human CD45 according to the manufacturer's instructions. For solid tumor cell lines, cellular viability was determined using the AlamarBlue kit (Invitrogen). About 10,000 cells in 100 μL of media containing 10% FBS were aliquoted into individual wells of a 96-well plate and treated with vehicle (DMSO) or compound in triplicate for 24 hours. Ten μL of AlamarBlue reagent was added to each well and incubated for 4 hours at 37° C. with 5% CO2. Fluorescence was measured with an excitation wavelength at 530 to 560 nm and emission wavelength at 590 nm using Spectramax M5 plate reader (Molecular Devices, Sunnyvale, Calif.).
as §1

Assay [2] deals with pAkt in B Cell Malignancies. Briefly: pAkt activity, B cell malignancies. In kind it is cell-based. The settings on record: N = 7.
Description: as §1

Assay [3] addresses PI3K p110α (Mus musculus, UniProt P42337). Description: Cellular p110α signaling: PDGF-stimulated MEFs, pAkt Western blot. The note with it: cellular assay, MEFs, PDGF; read-out: EC50 p110α. It counts as cell-based, murine. (A western blot detects proteins with antibodies after separation by electrophoresis.)
Description: as §2
The next assay has as its system T Cell Malignancies. Description: Cellular viability, T cell malignancies. In kind it is cell-based. The settings on record: N = 7.
Description: as §1

In another assay the target is T2, PI3Kβ (p110 β) (Homo sapiens, UniProt P42338).
T2 construct: made in house
Description: TR-FRET enzymatic assay, PI3Kβ. It counts as biochemical. A general note: TR-FRET usually uses a lanthanide donor and a delayed reading to cut background.

Another assay deals with T3, PI3Kδ (p110δ) (Homo sapiens, UniProt O00329).
T3 construct: made in house
Description: TR-FRET enzymatic assay, PI3Kδ. In kind it is biochemical.

Another assay has as its system pAkt in solid tumor. Briefly: pAkt activity, solid tumor. It counts as cell-based. The settings on record: N = 14.
Description: as §1

Another assay deals with T4, PI3Kγ (p110γ) (Homo sapiens, UniProt P48736).
T4 construct: made in house
Briefly: TR-FRET enzymatic assay, PI3Kγ. The note with it: 2×Km ATP, geometric mean of at least four determinations. In kind it is biochemical.

Assay [4] deals with PI3K p110α (Homo sapiens, UniProt P42336). Briefly: biochemical.
The next assay deals with PI3Kα (p110α) (Homo sapiens, UniProt P42336). Description: biochemical.
Assay [5] deals with T5, PI3K p110δ (Homo sapiens, UniProt O00329).
T5 construct: endogenous in cells; host or cells: basophils in isolated PBMC or whole blood
Description: Cellular p110δ signaling: basophil activation with anti-FCεRI (Flow2 CAST). It counts as cell-based. The settings on record: cellular assay.
Description: as §2

Assay [6] deals with T6, PI3K p110γ (Homo sapiens, UniProt P48736). Description: SelectScreen in vitro kinase inhibitor assay, p110γ. It counts as biochemical. The note with it: ATP at Km.
The target of assay [7] is T5, PI3K p110δ. Description: SelectScreen in vitro kinase inhibitor assay, p110δ. In kind it is biochemical.
Assay [8] addresses T6, PI3K p110γ. Briefly: Cellular p110γ signaling: basophil activation with fMLP (Flow2 CAST). In kind it is cell-based. Further details: endogenous in cells; host or cells: basophils in isolated PBMC or whole blood. The note with it: cellular assay.
Description: as §2
Assay [9] deals with T7, PI3K p110β (Homo sapiens, UniProt P42338).
T7 construct: purchased Invitrogen Ltd. (SelectScreen service)
Description: SelectScreen in vitro kinase inhibitor assay, p110β. In kind it is biochemical.

Assay [10] relates to pAkt in T Cell Malignancies. Briefly: pAkt activity, T cell malignancies. It counts as cell-based. The note with it: N = 7.
Description: as §1

T6 sequence (P48736 whole entry): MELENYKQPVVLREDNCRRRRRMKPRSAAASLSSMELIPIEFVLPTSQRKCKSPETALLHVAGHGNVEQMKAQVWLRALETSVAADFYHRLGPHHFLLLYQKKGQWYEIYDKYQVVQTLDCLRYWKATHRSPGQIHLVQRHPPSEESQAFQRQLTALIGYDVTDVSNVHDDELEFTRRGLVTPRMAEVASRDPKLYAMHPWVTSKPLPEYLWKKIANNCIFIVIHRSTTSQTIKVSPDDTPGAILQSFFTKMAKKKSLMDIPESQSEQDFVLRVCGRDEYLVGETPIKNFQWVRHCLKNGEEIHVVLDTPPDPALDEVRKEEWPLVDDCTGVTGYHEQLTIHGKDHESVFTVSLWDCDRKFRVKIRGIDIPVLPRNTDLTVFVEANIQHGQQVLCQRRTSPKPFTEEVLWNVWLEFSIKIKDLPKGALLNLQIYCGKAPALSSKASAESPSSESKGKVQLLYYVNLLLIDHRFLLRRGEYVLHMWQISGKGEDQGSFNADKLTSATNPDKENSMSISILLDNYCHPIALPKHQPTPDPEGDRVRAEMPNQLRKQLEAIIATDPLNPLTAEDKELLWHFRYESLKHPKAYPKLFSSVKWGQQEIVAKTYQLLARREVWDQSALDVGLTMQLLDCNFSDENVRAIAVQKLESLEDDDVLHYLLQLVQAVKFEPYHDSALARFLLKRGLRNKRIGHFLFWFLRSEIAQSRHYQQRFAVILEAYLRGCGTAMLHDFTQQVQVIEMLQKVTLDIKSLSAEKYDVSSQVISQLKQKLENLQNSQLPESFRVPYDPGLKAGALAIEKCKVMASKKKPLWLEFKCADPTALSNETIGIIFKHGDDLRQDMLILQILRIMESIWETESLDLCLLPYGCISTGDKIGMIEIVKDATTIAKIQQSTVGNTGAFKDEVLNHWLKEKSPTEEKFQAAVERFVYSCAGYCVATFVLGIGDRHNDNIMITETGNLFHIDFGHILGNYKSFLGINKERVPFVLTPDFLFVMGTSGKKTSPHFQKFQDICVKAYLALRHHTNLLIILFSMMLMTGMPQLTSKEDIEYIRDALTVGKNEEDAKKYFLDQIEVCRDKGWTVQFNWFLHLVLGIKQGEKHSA
Sequence of PI3K p110α (Mus musculus, UniProt P42337) (P42337 whole entry): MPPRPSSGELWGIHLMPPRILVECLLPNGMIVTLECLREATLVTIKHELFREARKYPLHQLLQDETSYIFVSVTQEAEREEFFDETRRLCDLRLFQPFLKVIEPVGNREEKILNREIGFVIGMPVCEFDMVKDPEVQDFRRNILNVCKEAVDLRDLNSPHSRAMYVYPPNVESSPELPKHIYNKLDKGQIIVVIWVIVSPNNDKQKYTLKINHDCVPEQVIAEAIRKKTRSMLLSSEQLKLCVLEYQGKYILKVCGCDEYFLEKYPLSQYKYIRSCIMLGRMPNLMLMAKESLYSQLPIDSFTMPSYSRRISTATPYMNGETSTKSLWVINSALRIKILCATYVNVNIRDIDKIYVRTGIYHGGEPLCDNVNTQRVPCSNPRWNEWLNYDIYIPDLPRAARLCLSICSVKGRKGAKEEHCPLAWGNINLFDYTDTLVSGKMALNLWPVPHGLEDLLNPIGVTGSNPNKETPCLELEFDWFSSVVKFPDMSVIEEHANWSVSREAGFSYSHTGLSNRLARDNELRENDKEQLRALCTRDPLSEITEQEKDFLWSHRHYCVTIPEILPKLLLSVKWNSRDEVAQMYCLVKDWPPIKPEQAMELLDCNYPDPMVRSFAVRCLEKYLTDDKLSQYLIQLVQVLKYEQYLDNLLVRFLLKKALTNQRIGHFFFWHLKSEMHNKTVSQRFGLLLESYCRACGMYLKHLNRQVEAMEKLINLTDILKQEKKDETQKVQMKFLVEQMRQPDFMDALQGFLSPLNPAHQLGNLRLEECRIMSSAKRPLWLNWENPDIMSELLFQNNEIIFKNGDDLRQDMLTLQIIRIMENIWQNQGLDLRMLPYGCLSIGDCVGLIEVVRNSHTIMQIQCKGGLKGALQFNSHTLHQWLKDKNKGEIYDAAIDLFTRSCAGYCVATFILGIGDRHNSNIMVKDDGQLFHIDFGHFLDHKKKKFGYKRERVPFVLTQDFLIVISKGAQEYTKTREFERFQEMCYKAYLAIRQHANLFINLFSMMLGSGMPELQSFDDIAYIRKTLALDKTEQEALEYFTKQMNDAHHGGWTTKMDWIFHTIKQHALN
Sequence of PI3K p110α (Mus musculus, UniProt P42337) (P26450 whole entry partner): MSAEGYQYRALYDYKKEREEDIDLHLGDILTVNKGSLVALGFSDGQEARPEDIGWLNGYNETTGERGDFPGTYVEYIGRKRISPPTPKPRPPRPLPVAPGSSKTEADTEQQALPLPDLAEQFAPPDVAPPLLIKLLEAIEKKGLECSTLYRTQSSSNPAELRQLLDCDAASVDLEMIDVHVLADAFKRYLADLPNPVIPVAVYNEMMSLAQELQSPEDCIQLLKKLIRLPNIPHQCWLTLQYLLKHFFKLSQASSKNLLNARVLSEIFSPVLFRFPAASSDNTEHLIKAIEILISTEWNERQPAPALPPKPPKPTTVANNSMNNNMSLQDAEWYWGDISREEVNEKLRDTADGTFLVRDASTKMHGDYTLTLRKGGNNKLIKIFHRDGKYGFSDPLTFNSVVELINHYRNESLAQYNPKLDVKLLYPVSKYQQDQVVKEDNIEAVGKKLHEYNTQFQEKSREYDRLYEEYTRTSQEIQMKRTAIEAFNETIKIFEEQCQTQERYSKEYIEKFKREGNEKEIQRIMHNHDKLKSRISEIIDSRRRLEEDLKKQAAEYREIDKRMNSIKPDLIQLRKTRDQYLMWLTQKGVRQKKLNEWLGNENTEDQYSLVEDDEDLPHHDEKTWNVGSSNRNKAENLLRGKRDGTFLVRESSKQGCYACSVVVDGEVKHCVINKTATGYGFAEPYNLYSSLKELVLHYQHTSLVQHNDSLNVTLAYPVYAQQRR
T1 sequence (Q8BTI9 whole entry): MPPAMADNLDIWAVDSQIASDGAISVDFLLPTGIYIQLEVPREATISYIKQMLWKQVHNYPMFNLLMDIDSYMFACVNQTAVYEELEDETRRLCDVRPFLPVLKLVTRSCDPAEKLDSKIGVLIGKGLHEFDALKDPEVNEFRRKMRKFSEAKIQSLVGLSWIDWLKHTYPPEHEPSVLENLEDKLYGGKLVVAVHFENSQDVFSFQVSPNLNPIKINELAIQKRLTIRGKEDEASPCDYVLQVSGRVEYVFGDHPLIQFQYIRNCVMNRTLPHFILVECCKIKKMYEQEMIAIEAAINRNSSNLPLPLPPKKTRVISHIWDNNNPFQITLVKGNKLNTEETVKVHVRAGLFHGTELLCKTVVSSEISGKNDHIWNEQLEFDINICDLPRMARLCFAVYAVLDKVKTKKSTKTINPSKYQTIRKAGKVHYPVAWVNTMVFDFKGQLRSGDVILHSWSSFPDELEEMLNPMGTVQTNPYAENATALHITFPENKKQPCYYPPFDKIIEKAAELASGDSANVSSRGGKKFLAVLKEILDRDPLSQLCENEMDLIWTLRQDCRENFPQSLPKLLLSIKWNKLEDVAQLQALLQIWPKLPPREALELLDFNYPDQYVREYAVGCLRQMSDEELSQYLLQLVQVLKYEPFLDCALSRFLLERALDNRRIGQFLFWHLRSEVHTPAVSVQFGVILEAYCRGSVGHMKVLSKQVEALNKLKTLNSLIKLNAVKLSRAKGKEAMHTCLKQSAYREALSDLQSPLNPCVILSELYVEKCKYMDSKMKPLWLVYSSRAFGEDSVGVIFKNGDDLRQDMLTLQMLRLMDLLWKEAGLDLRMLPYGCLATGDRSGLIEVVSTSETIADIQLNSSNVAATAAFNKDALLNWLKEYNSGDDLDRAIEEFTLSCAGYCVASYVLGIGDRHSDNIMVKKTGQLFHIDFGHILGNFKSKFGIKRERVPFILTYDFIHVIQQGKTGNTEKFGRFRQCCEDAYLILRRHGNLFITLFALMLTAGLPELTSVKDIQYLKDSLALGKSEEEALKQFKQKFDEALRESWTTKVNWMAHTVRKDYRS
T1 sequence (P26450 whole entry partner): as the sequence (P26450 whole entry partner) above
T4 sequence (P48736 whole entry, species assumed): as the sequence (P48736 whole entry) above
Description for PI3Kα (p110α): Enzymatic activity of the class I PI3K isoforms was measured using a time resolved fluorescence resonance energy transfer assay (TR-FRET) that monitors formation of the product 3,4,5-inositol triphosphate molecule (PIP3), as it competes with fluorescently labeled PIP3 for binding to the GRP-1 pleckstrin homology domain protein. An increase in phosphatidylinositide 3-phosphate product results in a decrease in TR-FRET signal as the labeled fluorophore is displaced from the GRP-1 protein binding site. Class I PI3K isoforms were expressed and purified as heterodimeric recombinant proteins. All assay reagents and buffers for the TR-FRET assay were purchased from Millipore. […] IC50 values were calculated from the fit of the dose-response curves to a four-parameter equation. All IC50 values represent geometric mean values of a minimum of four determinations. These assays generally produced results within 3-fold of the reported mean.
Description for PI3Kβ (p110 β): (§3) Enzymatic activity of the class I PI3K isoforms was measured using a time resolved fluorescence resonance energy transfer assay (TR-FRET) that monitors formation of the product 3,4,5-inositol triphosphate molecule (PIP3), as it competes with fluorescently labeled PIP3 for binding to the GRP-1 pleckstrin homology domain protein. An increase in phosphatidylinositide 3-phosphate product results in a decrease in TR-FRET signal as the labeled fluorophore is displaced from the GRP-1 protein binding site. Class I PI3K isoforms were expressed and purified as heterodimeric recombinant proteins. All assay reagents and buffers for the TR-FRET assay were purchased from Millipore. […] After an assay reaction time of 30 minutes at 25° C., reactions were terminated with a final concentration of 10 mM EDTA, 10 nM labeled-PIP3, and 35 nM Europium labeled GRP-1 detector protein before reading TR-FRET on an Envision plate reader. IC50 values were calculated from the fit of the dose-response curves to a four-parameter equation. All IC50 values represent geometric mean values of a minimum of four determinations. These assays generally produced results within 3-fold of the reported mean.
Description for PI3Kγ (p110γ): as §3
Description for PI3Kδ (p110δ): as §3

As to `CC[C@H](Nc1ncnc2[nH]cnc12)c1nc2cccc(F)c2c(=O)n1-c1ccccc1` [Compound C], the pEC50 was 5.72 at PI3K p110β [1]; 6.18 in the assay on B Cell Malignancies; 4.94 in the assay on Solid tumor; 6.44 in [2]; below 4.70 at PI3K p110α [3]; below 4.60 in the assay with T Cell Malignancies.
Turning to `C[C@H](Nc1ncnc2[nH]cnc12)c1nc2ccc(F)cc2c(=O)n1-c1ccccc1` [Compound D], the pIC50 on PI3Kβ (p110 β) was 5.47; on PI3Kδ (p110δ) it was 8.03; against PI3Kγ (p110γ) it was 6.00; against PI3K p110α [4] it was 6.52; at PI3Kα (p110α) it was 5.11; against PI3K p110γ [6], 7.60. Moreover, the pIC50 was 9.05 against PI3K p110δ [7] and 6.82 at PI3K p110β [9]. Besides, the negative logarithm of the EC50 (pEC50) is 6.01 in the assay on pAkt in solid tumor; 5.92 on PI3K p110β [1]; 6.27 with B Cell Malignancies; 8.31 at PI3K p110δ [5]; 5.32 in the assay with Solid tumor; 6.46 in assay [2]. The negative-log EC50 (pEC50) is 5.63 at PI3K p110γ [8], below 4.70 at PI3K p110α [3], 5.11 in the assay with T Cell Malignancies and 6.01 in [10].

The pEC50 is −log10 of the EC50, conventionally taken in molar units. For orientation: pIC50 means −log10 of the IC50, conventionally taken in molar units. A lower pIC50 goes with a large IC50.
